Key:
ABCA4 P1380L = biological target: T1, ABCA4 P1380L (Homo sapiens, UniProt P78363, P1380L); test: A4 correction dose-response assay: ABCA4 P1380L HiBit protein expression; assay type: cell-based; conditions: HEK-293 cells stably expressing HiBit-tagged ABCA4 P1380L; 24 h treatment; top concentration 30 μM; read-out: ABCA4 P1380L EC50, Emax
T1 construct: expressed in transfected cells
How it was run: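 Cells transfected with HiBit-tagged human ABCA4 P1380L cDNA were treated for 24 h at 37°C with an eleven-point dilution series (top final 30 μM, 0.3% DMSO).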

ABCB4 WT = biological target: T2, ABCB4 WT (Homo sapiens, UniProt P21439); test: ABCB4 WT assay: HiBit protein expression; assay type: cell-based; conditions: HEK-293 cells stably expressing HiBit-tagged ABCB4 WT; 24 h treatment; top concentration 30 μM; read-out: ABCB4 WT EC50, Emax
T2 construct: expressed in transfected cells
T2 sequence (P21439 whole entry): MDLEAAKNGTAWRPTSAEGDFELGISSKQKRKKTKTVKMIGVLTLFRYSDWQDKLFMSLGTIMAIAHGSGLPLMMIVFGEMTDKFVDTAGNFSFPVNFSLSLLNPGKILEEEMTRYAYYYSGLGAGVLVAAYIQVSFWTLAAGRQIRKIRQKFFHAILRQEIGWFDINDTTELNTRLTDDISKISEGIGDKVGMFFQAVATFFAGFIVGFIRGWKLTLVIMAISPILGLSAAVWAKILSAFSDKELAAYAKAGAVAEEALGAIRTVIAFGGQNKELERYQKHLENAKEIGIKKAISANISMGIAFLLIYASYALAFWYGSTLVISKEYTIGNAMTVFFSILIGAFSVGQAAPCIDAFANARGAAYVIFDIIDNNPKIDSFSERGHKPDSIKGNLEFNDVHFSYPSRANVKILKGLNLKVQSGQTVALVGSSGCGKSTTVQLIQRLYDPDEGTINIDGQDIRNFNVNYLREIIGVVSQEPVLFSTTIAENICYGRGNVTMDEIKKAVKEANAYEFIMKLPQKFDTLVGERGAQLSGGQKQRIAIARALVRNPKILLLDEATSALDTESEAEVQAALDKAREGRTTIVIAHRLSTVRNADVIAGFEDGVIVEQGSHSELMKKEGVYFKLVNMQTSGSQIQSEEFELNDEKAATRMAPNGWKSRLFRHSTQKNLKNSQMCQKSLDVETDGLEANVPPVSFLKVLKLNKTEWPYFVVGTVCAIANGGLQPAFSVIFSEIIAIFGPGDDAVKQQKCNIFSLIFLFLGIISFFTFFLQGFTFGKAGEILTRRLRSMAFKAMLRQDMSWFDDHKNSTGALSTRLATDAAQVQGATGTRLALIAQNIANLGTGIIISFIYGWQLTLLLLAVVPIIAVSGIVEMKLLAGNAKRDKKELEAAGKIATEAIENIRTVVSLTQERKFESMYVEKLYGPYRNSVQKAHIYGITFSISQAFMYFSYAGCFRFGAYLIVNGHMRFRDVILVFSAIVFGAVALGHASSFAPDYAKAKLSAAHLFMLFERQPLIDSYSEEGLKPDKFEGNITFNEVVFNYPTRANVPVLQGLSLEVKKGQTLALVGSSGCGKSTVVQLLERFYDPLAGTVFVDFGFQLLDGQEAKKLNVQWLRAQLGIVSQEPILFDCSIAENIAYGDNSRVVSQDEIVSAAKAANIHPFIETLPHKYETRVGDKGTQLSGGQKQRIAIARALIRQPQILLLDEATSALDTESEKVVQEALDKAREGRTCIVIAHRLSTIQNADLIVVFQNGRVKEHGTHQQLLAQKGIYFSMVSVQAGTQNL
How it was run: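 HEK-293 cells stably expressing HiBit-tagged human ABCB4 WT, treated 24 h at 37 °C with 11-dose 3-fold dilutions, top final 30 μM in 0.3% DMSO. HiBit lytic reagent luminescence read after 1 h at 25 °C; Emax and EC50 derived.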

T1 sequence (P78363 whole entry P1380L): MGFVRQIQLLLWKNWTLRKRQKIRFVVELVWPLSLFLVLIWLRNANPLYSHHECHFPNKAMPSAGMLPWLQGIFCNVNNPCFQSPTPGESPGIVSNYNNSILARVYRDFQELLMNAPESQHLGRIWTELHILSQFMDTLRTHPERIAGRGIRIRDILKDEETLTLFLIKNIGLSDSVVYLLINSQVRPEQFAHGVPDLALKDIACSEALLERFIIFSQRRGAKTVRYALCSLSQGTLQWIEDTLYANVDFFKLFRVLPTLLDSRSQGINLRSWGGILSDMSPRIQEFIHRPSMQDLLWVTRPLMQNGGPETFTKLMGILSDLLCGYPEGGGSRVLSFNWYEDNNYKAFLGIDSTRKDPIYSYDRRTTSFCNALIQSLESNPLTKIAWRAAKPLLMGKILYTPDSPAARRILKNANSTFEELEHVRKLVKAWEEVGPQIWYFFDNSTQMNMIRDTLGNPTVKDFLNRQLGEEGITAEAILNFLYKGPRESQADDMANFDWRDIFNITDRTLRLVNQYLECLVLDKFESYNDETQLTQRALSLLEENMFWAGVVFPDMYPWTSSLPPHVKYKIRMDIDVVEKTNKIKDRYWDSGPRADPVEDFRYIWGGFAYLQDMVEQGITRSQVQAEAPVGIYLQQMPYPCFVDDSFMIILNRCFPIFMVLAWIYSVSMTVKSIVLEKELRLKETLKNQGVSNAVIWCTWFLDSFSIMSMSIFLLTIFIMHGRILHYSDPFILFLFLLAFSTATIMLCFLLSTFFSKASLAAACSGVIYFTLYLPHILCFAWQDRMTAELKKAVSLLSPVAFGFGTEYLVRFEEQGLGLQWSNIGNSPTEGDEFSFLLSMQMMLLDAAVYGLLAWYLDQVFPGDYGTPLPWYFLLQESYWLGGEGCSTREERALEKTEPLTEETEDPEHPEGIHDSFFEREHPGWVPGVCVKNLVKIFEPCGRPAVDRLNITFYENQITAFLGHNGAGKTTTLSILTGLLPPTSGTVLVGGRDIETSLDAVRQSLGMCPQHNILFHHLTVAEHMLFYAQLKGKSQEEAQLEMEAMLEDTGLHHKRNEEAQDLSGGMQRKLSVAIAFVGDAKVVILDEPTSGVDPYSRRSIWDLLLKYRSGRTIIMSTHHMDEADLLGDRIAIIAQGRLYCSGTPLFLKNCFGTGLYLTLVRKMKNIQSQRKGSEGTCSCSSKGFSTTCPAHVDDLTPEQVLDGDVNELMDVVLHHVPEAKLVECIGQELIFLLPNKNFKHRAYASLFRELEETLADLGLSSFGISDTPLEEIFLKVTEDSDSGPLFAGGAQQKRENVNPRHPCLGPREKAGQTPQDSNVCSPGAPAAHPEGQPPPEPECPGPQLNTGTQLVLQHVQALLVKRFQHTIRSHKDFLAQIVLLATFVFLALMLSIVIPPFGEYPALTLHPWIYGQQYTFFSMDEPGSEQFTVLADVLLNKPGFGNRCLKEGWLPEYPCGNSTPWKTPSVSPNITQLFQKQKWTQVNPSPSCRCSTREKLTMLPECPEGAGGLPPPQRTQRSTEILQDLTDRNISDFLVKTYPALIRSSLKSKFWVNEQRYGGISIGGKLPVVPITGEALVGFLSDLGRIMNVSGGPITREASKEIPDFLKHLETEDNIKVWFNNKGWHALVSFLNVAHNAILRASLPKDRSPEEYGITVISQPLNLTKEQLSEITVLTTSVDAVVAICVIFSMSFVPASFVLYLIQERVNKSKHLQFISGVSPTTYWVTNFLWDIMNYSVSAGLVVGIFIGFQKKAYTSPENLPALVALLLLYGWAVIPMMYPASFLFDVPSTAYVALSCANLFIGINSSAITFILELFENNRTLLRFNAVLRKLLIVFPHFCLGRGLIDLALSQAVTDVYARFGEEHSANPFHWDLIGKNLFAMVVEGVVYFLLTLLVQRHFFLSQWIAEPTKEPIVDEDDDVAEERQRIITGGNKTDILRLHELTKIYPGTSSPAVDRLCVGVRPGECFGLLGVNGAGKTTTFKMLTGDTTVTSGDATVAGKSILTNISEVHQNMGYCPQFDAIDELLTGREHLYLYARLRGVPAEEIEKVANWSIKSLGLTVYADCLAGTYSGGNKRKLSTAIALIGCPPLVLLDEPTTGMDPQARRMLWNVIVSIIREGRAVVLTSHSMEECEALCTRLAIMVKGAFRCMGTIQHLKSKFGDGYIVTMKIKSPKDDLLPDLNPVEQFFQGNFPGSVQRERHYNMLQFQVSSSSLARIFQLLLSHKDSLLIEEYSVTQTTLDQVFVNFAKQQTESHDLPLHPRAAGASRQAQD

Row | SMILES | EC50 (ABCA4 P1380L) | EC50 (ABCB4 WT)
1 | Cc1cc(C)c(Oc2nc(-c3cncc(Cl)c3)ncc2S(N)(=O)=O)c(C)c1Cl [Compound I-93] | 1 to 10 µM | ≥ 25 µM
2 | Cc1cc(C)c(Oc2nc(-c3cncc(Cl)c3)ccc2N(C)S(=O)(=O)c2cccnc2)c(C2CC2)c1 [Compound I-53] | 1 to 10 µM | ≥ 25 µM
3 | Cc1cc(C)c(Oc2nc(-c3cn[nH]c3)ccc2NS(C)(=O)=O)c(C2CC2)c1 [Compound I-2] | > 25 µM | ≥ 25 µM
4 | Cc1cc(C)c(Oc2nc(N3CCN(S(=O)(=O)C4CC4)CC3)ccc2NS(C)(=O)=O)c(C)c1 [Compound I-44] | 10 to 25 µM | ≥ 25 µM
5 | Cc1cc(C)c(Oc2nc(-c3cncc(Cl)c3)ccc2NS(C)(=O)=O)c(C2CC2)c1 [Compound I-57] | 1 to 10 µM | < 25 µM
6 | Cc1cc(C)c(Oc2nc(-c3cncc(Cl)c3)cnc2S(N)(=O)=O)c(C)c1Cl [Compound I-90] | 1 to 10 µM | 1 to 10 µM
7 | Cc1ccc(Oc2nc(-c3cncc(C#N)c3)ccc2NS(C)(=O)=O)c(C)n1 [Compound I-3] | < 1 µM | < 1 µM
8 | Cc1cc(C)c(Oc2nc(-c3cncc(Cl)c3)ccc2N2CCCS2(=O)=O)c(C)c1 [Compound I-67] | > 25 µM | 1 to 10 µM
9 | Cc1cc(C)c(Oc2nc(-c3cncc(Cl)c3)ccc2S(=O)(=O)NCc2ccccn2)c(C2CC2)c1 [Compound I-76] | > 25 µM | 1 to 10 µM
10 | Cc1cc(C)c(Oc2nc(N3CC4(C3)CN(S(=O)(=O)C3CC3)C4)ccc2NS(C)(=O)=O)c(C)c1 [Compound I-43] | > 25 µM | ≥ 25 µM
11 | Cc1cc(C)c(Oc2nc(-c3cncc(Cl)c3)ccc2N(C)S(=O)(=O)c2cnn(C)c2)c(C2CC2)c1 [Compound I-52] | 1 to 10 µM | 1 to 10 µM
12 | Cc1cc(C)c(Oc2nc(N3CCN(C(=O)C4CC4)CC3)ccc2NS(C)(=O)=O)c(C)c1 [Compound I-47] | > 25 µM | < 1 µM
13 | Cc1cc(C)c(Oc2nc(-c3cncc(Cl)c3)ccc2S(=O)(=O)NCc2ccccn2)c(C)c1 [Compound I-86] | < 25 µM | 1 to 10 µM
14 | Cc1cc(C)c(Oc2nc(-c3cncc(Cl)c3)ccc2NS(=O)(=O)c2cnn(C)c2)c(C)c1 [Compound I-72] | > 25 µM | ≥ 25 µM
15 | CNS(=O)(=O)c1ccc(N2CCN(C)C(=O)C2)nc1Oc1c(C)cc(C)cc1C [Compound I-92] | > 25 µM | ≥ 25 µM
16 | CNS(=O)(=O)c1ncc(-c2cncc(Cl)c2)nc1Oc1c(C)cc(C)c(Cl)c1C [Compound I-89] | > 25 µM | 1 to 10 µM
17 | Cc1cc(C)c(Oc2nc(-c3cncc(Cl)c3)ccc2NS(C)(=O)=O)c(C)n1 [Compound I-46] | < 1 µM | < 25 µM
18 | Cc1cc(C)c(Oc2cc(-c3cncc(Cl)c3)cnc2NS(C)(=O)=O)c(C)c1 [Compound I-60] | < 25 µM | ≥ 25 µM
19 | Cc1cc(C)c(Oc2nc(-c3cncc(C(N)=O)c3)ccc2NS(C)(=O)=O)c(C2CC2)n1 [Compound I-1] | < 1 µM | ≥ 25 µM
20 | CNS(=O)(=O)c1cnc(-c2cncc(Cl)c2)cc1Oc1c(C)cc(C)cc1C [Compound I-84] | < 25 µM | ≥ 25 µM
21 | Cc1cc(C)c(Oc2nc(-c3cncc(Cl)c3)ccc2S(=O)(=O)N[C@H](c2ccccc2)C(F)(F)F)c(C)c1 [Compound I-81] | 1 to 10 µM | < 25 µM
22 | Cc1cc(C)c(Oc2nc(-c3cncc(Cl)c3)ccc2S(=O)(=O)N(C)Cc2ccccc2)c(C)c1 [Compound I-85] | > 25 µM | < 25 µM
23 | Cc1cc(C)c(Oc2nc(-c3cncc(Cl)c3)ccc2NS(=O)(=O)Cc2ccccn2)c(C)c1 [Compound I-62] | > 25 µM | ≥ 25 µM
24 | Cc1cc(C)c(Oc2nc(-c3cncc(Cl)c3)ccc2N2CCCCS2(=O)=O)c(C)c1 [Compound I-66] | > 25 µM | ≥ 25 µM

Other lines, results leading:

Row | EC50 (ABCA4 P1380L) | EC50 (ABCB4 WT) | SMILES
25 | 1 to 10 µM | 1 to 10 µM | Cc1cc(C)c(Oc2nc(-c3cncc(Cl)c3)ccc2S(=O)(=O)Nc2cnn(C)c2)c(C2CC2)c1 [Compound I-75]
26 | > 25 µM | ≥ 25 µM | Cc1cc(C)c(Oc2nc(-c3cncc(Cl)c3)ccc2NS(=O)(=O)Cc2ccccc2)c(C)c1 [Compound I-65]
27 | > 25 µM | ≥ 25 µM | Cc1cc(C)c(Oc2nc(-c3cncc(Cl)c3)ccc2NS(=O)(=O)C(C)(C)C)c(C)c1 [Compound I-68]
28 | 1 to 10 µM | ≥ 25 µM | Cc1cc(C)c(Oc2nc(-c3cncc(Cl)c3)ccc2N(C2CC2)S(C)(=O)=O)c(C)c1 [Compound I-42]
29 | > 25 µM | < 1 µM | Cc1cc(C)c(Oc2nc(-c3cncc(Cl)c3)ccc2N(C)S(C)(=O)=O)c(C)c1 [Compound I-48]
30 | > 25 µM | ≥ 25 µM | Cc1cc(C)c(Oc2cc(-c3cncc(Cl)c3)ncc2NS(C)(=O)=O)c(C)c1 [Compound I-56]
31 | < 1 µM | ≥ 25 µM | Cc1cc(C)c(Oc2nc(-c3ccc(C#N)nc3)ccc2NS(C)(=O)=O)c(C)c1 [Compound I-45]
32 | > 25 µM | ≥ 25 µM | Cc1cc(C)c(Oc2nc(-c3cncc(Cl)c3)ccc2NS(=O)(=O)c2cccnc2)c(C)c1 [Compound I-71]
33 | 1 to 10 µM | < 25 µM | Cc1cc(C)c(Oc2nc(-c3cncc(Cl)c3)ccc2S(=O)(=O)NCc2ccccc2)c(C)c1 [Compound I-88]
34 | > 25 µM | ≥ 25 µM | Cc1cc(C)c(Oc2nc(-c3cncc(Cl)c3)ccc2N(C)S(=O)(=O)c2cnn(C)c2)c(C)c1 [Compound I-70]
35 | > 25 µM | ≥ 25 µM | Cc1cc(C)c(Oc2cc(-c3cncc(Cl)c3)cnc2NS(=O)(=O)c2cnn(C)c2)c(C)c1 [Compound I-61]
36 | > 25 µM | ≥ 25 µM | Cc1cc(C)c(Oc2nc(-c3cncc(Cl)c3)ccc2NS(=O)(=O)c2cnn(C)c2)c(C2CC2)c1 [Compound I-58]
37 | < 25 µM | ≥ 25 µM | Cc1cc(C)c(Oc2nc(-c3cncc(Cl)c3)ccc2NS(=O)(=O)c2cccnc2)c(C2CC2)c1 [Compound I-54]
38 | 1 to 10 µM | < 25 µM | Cc1cc(C)c(Oc2nc(-c3cncc(Cl)c3)ccc2N(C)S(=O)(=O)c2cccnc2)c(C)c1 [Compound I-69]
39 | > 25 µM | ≥ 25 µM | Cc1cc(C)c(Oc2nc(-c3cncc(Cl)c3)ccc2NS(C)(=O)=O)c(C)c1 [Compound I-55]
40 | < 1 µM | < 1 µM | CNS(=O)(=O)c1ccc(N2CCN(C(=O)C3CC3)CC2)nc1Oc1c(C)cc(C)cc1C [Compound I-73]
41 | 1 to 10 µM | 1 to 10 µM | Cc1cc(C)c(Oc2nc(-c3cncc(Cl)c3)ccc2S(=O)(=O)Nc2cnn(C)c2)c(C)c1 [Compound I-94]
42 | 1 to 10 µM | ≥ 25 µM | Cc1cc(C)c(Oc2cc(-c3cncc(Cl)c3)cnc2N(C)S(=O)(=O)c2cnn(C)c2)c(C)c1 [Compound I-59]
43 | > 25 µM | ≥ 25 µM | Cc1cc(C)c(Oc2nc(-c3cncc(Cl)c3)ccc2S(=O)(=O)NC(c2ccccn2)C(F)(F)F)c(C)c1 (single isomer, unassigned) [Compound I-80]
44 | 1 to 10 µM | < 25 µM | COC1CC(NS(=O)(=O)c2ccc(-c3cncc(Cl)c3)nc2Oc2c(C)cc(C)cc2C)C1 (stereo not drawn) [Compound I-78]
45 | > 25 µM | < 1 µM | Cc1cc(C)c(Oc2nc(-c3cncc(Cl)c3)ccc2NS(=O)(=O)C2CC2)c(C)c1 [Compound I-49]
46 | < 1 µM | < 1 µM | COC1CC(S(=O)(=O)Nc2ccc(-c3cncc(Cl)c3)nc2Oc2c(C)cc(C)cc2C)C1 (stereo not drawn) [Compound I-51]
47 | 1 to 10 µM | 1 to 10 µM | COC1CC(NS(=O)(=O)c2ccc(-c3cncc(Cl)c3)nc2Oc2c(C)cc(C)cc2C2CC2)C1 (stereo not drawn) [Compound I-74]
48 | < 25 µM | ≥ 25 µM | Cc1cc(C)c(Oc2nc(-c3cncc(Cl)c3)ccc2S(=O)(=O)NC(c2ccccn2)C(F)(F)F)c(C)c1 (single isomer, unassigned) [Compound I-79]
49 | 1 to 10 µM | ≥ 25 µM | Cc1cc(C)c(Oc2nc(-c3cncc(Cl)c3)ccc2S(=O)(=O)N[C@@H](c2ccccc2)C(F)(F)F)c(C)c1 [Compound I-83]
50 | > 25 µM | 1 to 10 µM | CC(=O)NC1CN(c2ccc(NS(=O)(=O)c3cccnc3)c(Oc3c(C)cc(C)cc3C3CC3)n2)C1 [Compound I-50]
51 | 1 to 10 µM | < 25 µM | Cc1cc(C)c(Oc2nc(-c3cncc(Cl)c3)ccc2N(C)S(=O)(=O)Cc2ccccc2)c(C)c1 [Compound I-64]
52 | > 25 µM | 1 to 10 µM | Cc1cc(C)c(Oc2nc(-c3cncc(Cl)c3)ccc2S(=O)(=O)NCc2cc(C(F)(F)F)ccn2)c(C)c1 [Compound I-87]
53 | < 25 µM | 1 to 10 µM | CNS(=O)(=O)c1ccc(-c2cncc(Cl)c2)nc1Oc1c(C)cc(C)cc1C1CC1 [Compound I-77]
54 | 10 to 25 µM | ≥ 25 µM | COc1ccc2nc[nH]c2c1S(=O)(=O)Nc1ccc(-c2cncc(Cl)c2)nc1Oc1c(C)cc(C)cc1C [Compound I-63]

Reference: US20250228835A1, “PYRIDINYLOXYPYRIDINES AND RELATED COMPOUNDS AND THEIR USE IN TREATING MEDICAL CONDITIONS” (Rectify Pharmaceuticals, Inc., priority 2024, published 2025)
